Among the data in ChEMBL document CHEMBL1153933, “Selective inhibition of Pfmrk, a Plasmodium falciparum CDK, by antimalarial 1,3-diaryl-2-propenones” (Bioorg Med Chem Lett, 2009) are IC50 values, retold here.

One assay has as its target T1, Protein kinase Pfmrk (Plasmodium falciparum, UniProt P90584).
T1 sequence (P90584 whole entry): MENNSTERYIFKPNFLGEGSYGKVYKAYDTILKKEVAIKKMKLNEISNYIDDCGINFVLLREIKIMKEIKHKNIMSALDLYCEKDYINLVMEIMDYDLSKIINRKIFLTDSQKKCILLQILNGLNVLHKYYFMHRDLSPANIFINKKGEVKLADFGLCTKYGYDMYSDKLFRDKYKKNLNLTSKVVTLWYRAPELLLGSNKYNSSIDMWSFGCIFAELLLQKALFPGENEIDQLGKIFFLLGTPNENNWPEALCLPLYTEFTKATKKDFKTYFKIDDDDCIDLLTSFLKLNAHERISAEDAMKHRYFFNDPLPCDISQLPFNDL
Put plainly: Inhibition of His6x-tagged Plasmodium falciparum Pfmrk expressed in Escherichia coli by microtiter plate scintillation counting.

A short description of assay [1]: Inhibition of His6x-tagged Plasmodium falciparum PfPK5 expressed in Escherichia coli by microtiter plate scintillation counting.
Assay [2] has as its system Plasmodium falciparum. Description: Antimalarial activity after 24 hrs against chloroquine-resistant Plasmodium falciparum W2 by [3H]hypoxanthine uptake. It counts as functional, organism-based.
In assay [3] the test system is Plasmodium falciparum. Description: Antimalarial activity after 24 hrs against chloroquine-sensitive Plasmodium falciparum D6 by [3H]hypoxanthine uptake. It counts as functional, organism-based.

What is called IC50 is the concentration needed to halve the response being measured. The low end stands for greater potency in that assay, the high end for weaker potency in that assay. With `COc1ccc(C(=O)/C=C/c2cccc3ccccc23)c(OC)c1`, the figures for the half-maximal inhibitory concentration (IC50) (at Protein kinase Pfmrk; in assay [1]) were 1.3 µM and more than 100 µM, respectively.

In the case of `O=C(/C=C/c1ccccc1)c1cccc([N+](=O)[O-])c1`, the IC50 is more than 19.8 µM with Plasmodium falciparum [2], more than 19.8 µM in the assay on Plasmodium falciparum [3] and more than 316 µM in assay [1].

Consider `CC(=O)Nc1ccc(C(=O)/C=C/c2ccccc2)cc1`, for which the results for the half-maximal inhibitory concentration (IC50) (in the assay on Plasmodium falciparum [2]; in the assay with Plasmodium falciparum [3]; in assay [1]) were 9.9 µM, 10.9 µM and more than 302 µM, respectively.

With `COc1ccc(C(=O)/C=C/c2cccc3ccccc23)c(OC)c1OC`, the IC50 against Protein kinase Pfmrk is 50 µM; in assay [1], more than 100 µM.

For the molecule `COc1ccc(C(=O)/C=C/c2ccc3ccccc3c2)c(OC)c1`, half-maximal inhibition on Protein kinase Pfmrk (IC50) was put at 100 µM.

Take `COc1ccc(C(=O)/C=C/c2cccc3ccccc23)cc1`: the IC50 (on Protein kinase Pfmrk; in assay [1]) was more than 100 µM in each case.

In the case of `COc1ccc(C(=O)/C=C/c2ccc3ccccc3c2)c(OC)c1OC`, the IC50 was 19 µM against Protein kinase Pfmrk and more than 100 µM in assay [1].

With `COc1ccc(C(=O)/C=C/c2ccncc2)cc1`, the IC50 stood at 12.2 µM in the assay on Plasmodium falciparum [2], 8.2 µM on Protein kinase Pfmrk, 12 µM in the assay with Plasmodium falciparum [3] and 100 µM in assay [1].

Regarding `Cc1ccc(C(=O)/C=C/c2ccccc2)cc1`, the IC50 with Plasmodium falciparum [2] was 11.5 µM; against Protein kinase Pfmrk, 20 µM; with Plasmodium falciparum [3], 11.7 µM; in assay [1] it was more than 360 µM.

`N#Cc1ccc(C(=O)/C=C/c2ccc(Cl)cc2)cc1`: the half-inhibitory concentration (IC50) in the assay on Plasmodium falciparum [2] was 10.5 µM; at Protein kinase Pfmrk it was more than 100 µM; in the assay on Plasmodium falciparum [3] it was more than 18.2 µM; in assay [1] it was more than 299 µM.

Turning to `COc1ccc(C(=O)/C=C/c2ccncc2)c(OC)c1OC`, the IC50 is 3.2 µM in the assay on Plasmodium falciparum [2], 9 µM on Protein kinase Pfmrk, 2.8 µM with Plasmodium falciparum [3] and more than 100 µM in assay [1].

With `O=C(/C=C/c1ccccn1)c1cccc([N+](=O)[O-])c1`, the IC50 with Plasmodium falciparum [2] is more than 19.7 µM; at Protein kinase Pfmrk, 18 µM; with Plasmodium falciparum [3] it was 11 µM; in assay [1] it was more than 315 µM.

Turning to `O=C(/C=C/c1ccc([N+](=O)[O-])cc1)c1cccc([N+](=O)[O-])c1`, the concentration for half-maximal inhibition (IC50) was more than 16.8 µM with Plasmodium falciparum [2], 268 µM on Protein kinase Pfmrk, more than 16.8 µM with Plasmodium falciparum [3] and more than 268 µM in assay [1].

Consider `C/C(=C\C(=O)c1cccc([N+](=O)[O-])c1)c1cccc([N+](=O)[O-])c1`, for which the IC50 with Plasmodium falciparum [2] is 8.2 µM; against Protein kinase Pfmrk, more than 256 µM; with Plasmodium falciparum [3] it was 8.3 µM; in assay [1] it was more than 256 µM.

`CCOC(=O)/C(=C\c1ccccn1)C(=O)c1cccc([N+](=O)[O-])c1`: the IC50 was found to be 61 µM on Protein kinase Pfmrk and 123 µM in assay [1].

Turning to `COc1ccc(C(=O)/C=C/c2ccccn2)cc1`, the IC50 was 10.5 µM in the assay with Plasmodium falciparum [2], 12 µM at Protein kinase Pfmrk, 7.1 µM in the assay with Plasmodium falciparum [3] and more than 100 µM in assay [1].

As for `COc1ccc(C(=O)/C=C/c2cccnc2)c(OC)c1OC`, the IC50 with Plasmodium falciparum [2] was 3.9 µM; against Protein kinase Pfmrk, 38 µM; in the assay with Plasmodium falciparum [3], 3.2 µM; in assay [1] it was more than 100 µM.

With `COc1ccc(C(=O)/C=C/c2ccccn2)c(OC)c1OC`, the IC50 was 2.3 µM in the assay with Plasmodium falciparum [2], 34 µM on Protein kinase Pfmrk, 2.5 µM with Plasmodium falciparum [3] and more than 100 µM in assay [1].

Turning to `O=C(/C=C/c1ccccn1)c1ccccc1` [WR-190433], the IC50 at Protein kinase Pfmrk is 22 µM; in assay [1], more than 382 µM.
